Results on 17 molecules are retold here after patent publication US8809377B2, “Deubiquitinase inhibitors and methods for use of the same” (The Regents of the University of Michigan, priority 2010, dated 2014).

One assay relates to DUB activity. Description: Western / HA-UbVS labeling of DUB activity in intact cells. The note with it: H929, WDT2, Z138 cell lines. It counts as cell-based. Here is the method:
To assay for changes in activity of cellular deubiquitinase enzymes, leukemic cells were lysed in DUB buffer (50 mM Tris pH 7.4, 5 mM MgCl2, 150 mM NaCl) for 10 min at 4° C. The lysates were centrifuged at 20,000 RCF for 10 min and the supernatant was used for DUB labeling. Equal amounts of lysate were incubated with 500 ng of HA-UbVs for 1 hr at room temperature, followed by boiling in reducing sample buffer and resolving by SDS-PAGE. HA immunoblotting was used to detect DUB labeling.
To assay for changes in activity of cellular deubiquitinase enzymes, Z138 and HEK293 cells were lysed in DUB buffer (50 mM Tris pH 7.4, 5 mM MgCl2, 150 mM NaCl) for 10 min at 4° C. The lysates were centrifuged at 20,000 RFC for 10 min and the supernatant was used for DUB labeling. Equal amounts of lysate were incubated with 500 ng of HA-UbVs for 1 hr at room temperature, followed by boiling in reducing sample buffer and resolving by SDS-PAGE. After protein transfer to nitrocellulose membranes, HA immunoblotting was used to detect DUB labeling.
(§1) Cancer Res, 2010. 70(22): p. […] Blood, 2011. 117(11): p. […] Biochem Pharmacol, 2011. 82(4): p. […] Blood, 2007. 109(8): p. 3470-8.

The subject of the next assay is USP9X. Description: Western / HA-UbVS labeling of USP9X in intact cells or lysates. It counts as cell-based. The note with it: for Western Targets: USP9X: H929, WDT2, Z138 cell lines; for Usp9x activity (HA-UbVs labeling): CML cells treated for 4 hours.
In another assay the test system is Murine norovirus (MNV). Nature of the assay: Murine norovirus plaque assay. The note with it: Norwalk virus, RAW264.7, MNV, murine macrophages (RAW264.7 or bone marrow derived), 5 μM, 30 min pre-treatment, 8-12 hr; read-out: Log inhibition by plaque assay. It counts as cell-based. Here is the method: Viral titers were determined by plaque assay.
Cells were treated with IFN-β as a positive anti-viral control.

For the next assay, the target named is T1, USP9X-UCH (Homo sapiens, UniProt Q93008).
T1 sequence (Q93008 1557-1956 limits assumed): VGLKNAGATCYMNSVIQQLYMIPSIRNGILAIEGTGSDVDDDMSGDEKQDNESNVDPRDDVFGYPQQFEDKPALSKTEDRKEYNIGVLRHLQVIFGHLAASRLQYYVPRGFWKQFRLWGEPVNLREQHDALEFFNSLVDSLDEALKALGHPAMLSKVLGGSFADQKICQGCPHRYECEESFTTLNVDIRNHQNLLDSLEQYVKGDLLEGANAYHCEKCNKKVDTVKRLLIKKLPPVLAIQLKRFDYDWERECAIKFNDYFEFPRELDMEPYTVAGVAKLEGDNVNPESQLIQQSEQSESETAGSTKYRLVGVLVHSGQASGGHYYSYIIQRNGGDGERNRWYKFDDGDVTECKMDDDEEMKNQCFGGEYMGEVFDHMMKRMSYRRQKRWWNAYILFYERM
It counts as biochemical. The note with it: isolated Usp9x-UCH domain enzyme preparation. Here is the method:
Purified DUBs at optimal concentrations (USPS; 20 nM, UCH-L1; 20 nM, UCH-L3; 5 nM, USP9x; immunoprecipitated from 500 μg Z138 cell lysate) were incubated in DUB buffer containing WP1130, vehicle alone (DMSO) or 1 mM NEM (positive control for DUB inhibition) in a 100 μL reaction volume for 30 min. The reaction was initiated by the addition of 500 nM Ub-AMC and the release of AMC-fluorescence was recorded at ex/em 380/480 using a spectrofluorometer.
as §1

For another assay, the system named is Z138. Nature of the assay: MTT cell growth, survival and apoptosis. The note with it: Z138 cell line.
A further assay relates to cellular DUB activity. Description: DUB activity of lysates from treated cells (Ub-AMC, Ub chain disassembly). It counts as cell-based. The arrangement: suppression of cellular DUB activity (ubiquitin-AMC): dose or concentration left out as unconfirmed. Here is the method: Cells were lysed in ice cold DUB buffer containing 50 mM Tris-HCl, pH 7.5, 0.5% NP-40, 5 mM MgCl2, 150 mM NaCl and 1 mM phenylmethylsulfonylfluoride. Briefly, 5 μg of clarified lysate from untreated or treated cells was incubated with 500 nM Ub-AMC in a 100 μL reaction volume at 37° C. and the release of AMC fluorescence was recorded at ex/em 380/480 using a spectrofluorometer. USP9x was immunoprecipitated from 500 μg of cell lysate and incubated in DUB buffer containing NEM, WP1130 or DMSO in a 100 μL reaction volume for 30 min. The reaction was initiated by the addition of 500 nM Ub-AMC and the release of AMC-fluorescence was recorded.
In vitro disassembly of purified polyubiquitin chains (K-48/K-63 linked) was performed as previously described. Five μg of lysate from untreated or WP1130 treated cells were prepared in DUB buffer and incubated with K48- or K-63 linked chains (1 μg) for 10 min at 37° C. The extent of chain disassembly was assessed by ubiquitin immunoblotting.
Inhibition of cellular deubiquitinases could lead to an increase in high molecular weight ubiquitinated proteins in the absence of proteasome inhibition. […] To directly assess the impact of WP1130 on DUB activity in treated cells, cell lysates from control and treated cells were incubated with ubiquitin-AMC and fluorescence generated as a consequence of substrate cleavage was measured as an indicator of DUB activity.
The effect of WP1130 treatment on in vitro deubiquitination/disassembly of purified K48-linked or K63-linked polyubiquitin chains was evaluated. Lysates from WP1130 treated (2 hr) or untreated cells were incubated with 1 μg of unanchored polyubiquitin chains for 5, 10 and 15 min at 37° C.

Experimental for Z138: Cells were seeded in a 96-well plate at 5,000 cells per well in the presence of increasing concentration of WP1130 for 3 days in a CO2 incubator at 37° C. 20 μL of 5 g/L 3-(4,5-dimethylthiazol-2-yl)-2,5-diphenyltetrazolium bromide (MTT) solution was added to each well for 2 h at 37° C. The cells were then lysed in 10% SDS-buffer and absorbance at 570 nm relative to a reference wavelength of 630 nm was determined with a microplate reader. The concentrations resulting in 50% inhibition of cell growth (IC50 values) were calculated.
Annexin V and propidium iodide (PI) staining were used to measure apoptosis in WP1130 treated cells. Briefly, 10^5/mL cells were harvested from tissue culture plates and centrifuged at 2500 rpm for 5 min at room temperature. Media supernatant was removed and cells were washed once in PBS. Cells were then resuspended in 0.4 ml of cold Annexin V binding buffer and Annexin V-FITC and propidium iodide were added. Samples were incubated at room temperature for 10 min in the dark, filtered through nylon mesh, and analyzed by flow cytometry using a FacScan analyzer (Becton-Dickinson, San Jose, Calif.).
Compounds were screened for DUB inhibitory and apoptotic activity in a panel of CML, myeloma and Mantle cell lymphoma cell lines, and compared to WP1130.

`CCCC(NC(=O)/C(C#N)=C/c1cccc(Br)n1)c1ccc(OC)cc1` (stereo not drawn) [Compound 8, (E)-3-(6-bromopyridin-2-yl)-2-cyano-N-(1-(4-methoxyphenyl)butyl)acrylamide]: in the assay on DUB activity, the “Western Targets: DUB activity” value was “USP9X and DUB activity: no effect”. Besides, in the assay with USP9X, the “Western Targets: USP9X” value is “USP9X and DUB activity: no effect”.
`CCCC(NC(=O)/C(C#N)=C/c1ncc[nH]1)c1ccc(OCOC)cc1` (stereo not drawn) [Compound 10, (E)-2-Cyano-3-(1H-imidazol-2-yl)-N-(1-(4-(methoxymethoxy)phenyl)butyl)acrylamide]: the “Western Targets: DUB activity” value with DUB activity was “USP9X and DUB activity: no effect”. For the same molecule, in the assay with USP9X, the “Western Targets: USP9X” value was “USP9X and DUB activity: no effect”.
Consider `CCCC(NC(=O)/C(C#N)=C/c1ncc[nH]1)c1ccc(O)cc1` (stereo not drawn) [Compound 11, (E)-2-Cyano-N-(1-(4-hydroxyphenyl)butyl)-3-(1H-imidazol-2-yl)acrylamide], for which the “Western Targets: DUB activity” value with DUB activity was “USP9X and DUB activity: no effect”. In the assay with USP9X, the “Western Targets: USP9X” value is “USP9X and DUB activity: no effect”.
`CCCC(NC(=O)/C(C#N)=C/c1cccc(Br)n1)c1ccc(OCCN(CC)CC)cc1` (stereo not drawn) [Compound 33, (E)-3-(6-Bromopyridin-2-yl)-2-cyano-N-(1-(4-(2-(diethylamino)ethoxy)phenyl)butyl)acrylamide]: in the assay with Murine norovirus (MNV), the log reduction at 5 µM lay in the range of 2 to 2.5. For the same molecule, the “AMC Assay on USP9X-UCH Activity relative to WP1130” value on USP9X-UCH is “Same”. Further, the “MTT Activity relative to WP1130” value with Z138 is “Less sensitive”.
As for `CCCC(NC(=O)/C(C#N)=C/c1cccc(F)n1)c1ccc(OCCN(CC)CC)cc1` (stereo not drawn) [Compound 34, (E)-2-Cyano-N-(1-(4-(2-(diethylamino)ethoxy)phenyl)butyl)-3-(6-fluoropyridin-2-yl)acrylamide], the log reduction at 5 µM in the assay on Murine norovirus (MNV) worked out at 2. The “AMC Assay on USP9X-UCH Activity relative to WP1130” value at USP9X-UCH is “No inhibition”. Further, the “MTT Activity relative to WP1130” value in the assay on Z138 is reported as “Less sensitive”.
For `CCCC(NC(=O)/C(C#N)=C/c1cccc(Br)n1)c1ccc(OCCN(C)C)cc1` (stereo not drawn) [Compound 35, (E)-3-(6-Bromopyridin-2-yl)-2-cyano-N-(1-(4-(2-(dimethylamino)ethoxy)phenyl)butyl)acrylamide] the same measures were 2, “Inconclusive” and “Less sensitive”.
For `CCCC(NC(=O)/C(C#N)=C/c1cccc(F)n1)c1ccc(OCCN2CCCC2)cc1` (stereo not drawn) [Compound 36, (E)-2-Cyano-3-(6-fluoropyridin-2-yl)-N-(1-(4-(2-(pyrrolidin-1-yl)ethoxy)phenyl)butyl)acrylamide] the same measures were 2, “No inhibition” and “Less sensitive”.
For `CCCC(NC(=O)/C(C#N)=C/c1cccc(F)n1)c1ccc(OCCN2CCOCC2)cc1` (stereo not drawn) [Compound 37, (E)-2-Cyano-3-(6-fluoropyridin-2-yl)-N-(1-(4-(2-morpholinoethoxy)phenyl)butyl)acrylamide] the same measures were 1, “No inhibition” and “Less sensitive”.
On to `CCCC(NC(=O)/C(C#N)=C/c1ncc[nH]1)c1ccc(OCCN(C)C)cc1` (stereo not drawn) [Compound 38, (E)-2-Cyano-N-(1-(4-(2-(dimethylamino)ethoxy)phenyl)butyl)-3-(1H-imidazol-2-yl)acrylamide], for which the log reduction at 5 µM in the assay on Murine norovirus (MNV) is 0.5. The “AMC Assay on USP9X-UCH Activity relative to WP1130” value at USP9X-UCH was “Inconclusive”. For the same molecule, the “MTT Activity relative to WP1130” value in the assay with Z138 is listed as “Less sensitive”.
The matching figures for `CCC[C@H](NC(=O)/C(C#N)=C/c1cccc(F)n1)c1ccccc1` [Compound 40, (S,E)-2-Cyano-3-(6-fluoropyridin-2-yl)-N-(1-phenylbutyl)acrylamide]: 2, “Less sensitive” and “Less sensitive”.
`CCC[C@H](NC(=O)/C(C#N)=C/c1cccc(Cl)n1)c1ccccc1` [Compound 41, (S,E)-2-Cyano-3-(6-chloropyridin-2-yl)-N-(1-phenylbutyl)acrylamide]: the log reduction at 5 µM in the assay with Murine norovirus (MNV) was found to be 2. In addition, the “AMC Assay on USP9X-UCH Activity relative to WP1130” value on USP9X-UCH is reported as “Inconclusive”. The “MTT Activity relative to WP1130” value in the assay on Z138 is given as “Less sensitive”.
The matching figures for `CCC[C@H](NC(=O)/C(C#N)=C/c1ncc[nH]1)c1ccccc1` [Compound 42, (S,E)-2-Cyano-3-(1H-imidazol-2-yl)-N-(1-phenylbutyl)acrylamide]: 0.5, “Less sensitive” and “Less sensitive”.
Regarding `CCCC(NC(=O)/C(C#N)=C/c1cccc(Br)n1)c1ccc(OCCOCCOCCNC(=O)CCCC[C@@H]2SC[C@@H]3NC(=O)N[C@@H]32)cc1` (stereo partly drawn) [Compound 48, N-(2-(2-(2-(4-(1-((E)-3-(6-Bromopyridin-2-yl)-2-cyanoacrylamido)butyl)phenoxy)ethoxy)ethoxy)ethyl)-5-((3aS,4S,6aR)-2-oxohexahydro-1H-thieno[3,4-d]imidazol-4-yl)pentanamide], the log reduction at 5 µM in the assay with Murine norovirus (MNV) came to 1.5.
Regarding `CCCC(NC(=O)/C=C/c1cccc(Br)n1)c1ccc(OCCOCCOCCNC(=O)CCCC[C@@H]2SC[C@@H]3NC(=O)N[C@@H]32)cc1` (stereo partly drawn) [Compound 51, N-(2-(2-(2-(4-(1-((E)-3-(6-Bromopyridin-2-yl)acrylamido)butyl)phenoxy)ethoxy)ethoxy)ethyl)-5-((3aS,4S,6aR)-2-oxohexahydro-1H-thieno[3,4-d]imidazol-4-yl)pentanamide], the log reduction at 5 µM in the assay on Murine norovirus (MNV) worked out at 0.
For `CCN1C(=O)C=CC1=O` [NEM, N-ethylmaleimide, reference compound], the “Ub-AMC hydrolyzing activity of lysates from treated cells” value in the assay on cellular DUB activity (CML cells, WP1130 1-8 hours) is given as “completely blocked substrate hydrolysis”. Also, the “suppression of cellular DUB activity (ubiquitin-AMC)” value with cellular DUB activity (Z138 cells, within 1 hr) is recorded as 80%.
With `Cc1cnc(Nc2ccc(N3CCN(C)CC3)cc2)nc1Nc1cccc(S(=O)(=O)NC(C)(C)C)c1` [TG101209, reference compound], the “Usp9x activity (HA-UbVs labeling)” value in the assay on USP9X is “none of the kinase inhibitors examined had significant Usp9x inhibitory activity”.
Same read-out and setting: as for `Cc1ccc(NC(=O)c2ccc(CN3CCN(C)CC3)cc2)cc1Nc1nccc(-c2cccnc2)n1` [imatinib, reference compound], the entry is “none of the kinase inhibitors examined had significant Usp9x inhibitory activity”.
